Experimental data as given in ChEMBL document CHEMBL1155954, “A concise approach to 1,11-didechloro-6-methyl-4'-O-demethyl rebeccamycin and its binding to human serum albumin: fluorescence spectroscopy and molecular modeling method” (Bioorg Med Chem, 2008).

How the values were obtained:
K562 = assay: Anticancer activity against human K562 cells; format: functional, cell-based
Albumin [1] = target: T1, Albumin (Homo sapiens, UniProt P02768); assay: Binding affinity to human serum albumin at 289 kelvin by fluorescence quenching measurement in presence of F- ions; format: ADME; settings: isolated protein
Albumin [2] = target: T1, Albumin; assay: Binding affinity to human serum albumin at 289 kelvin by fluorescence quenching measurement in presence of [CO3]2- ions; format: ADME; settings: isolated protein
Albumin [3] = target: T1, Albumin; assay: Binding affinity to human serum albumin at 299 kelvin by fluorescence quenching measurement; format: ADME; settings: isolated protein
Albumin [4] = target: T1, Albumin; assay: Binding affinity to human serum albumin at 289 kelvin by fluorescence quenching measurement in presence of Ni2+ ions; format: ADME; settings: isolated protein
Albumin [5] = target: T1, Albumin; assay: Binding affinity to human serum albumin at 289 kelvin by fluorescence quenching measurement in presence of K+ ions; format: ADME; settings: isolated protein
Albumin [6] = target: T1, Albumin; assay: Binding affinity to human serum albumin at 289 kelvin by fluorescence quenching measurement in presence of [SO4]2- ions; format: ADME; settings: isolated protein
Albumin [7] = target: T1, Albumin; assay: Binding affinity to human serum albumin at 309 kelvin by fluorescence quenching measurement; format: ADME; settings: isolated protein
Albumin [8] = target: T1, Albumin; assay: Binding affinity to human serum albumin at 289 kelvin by fluorescence quenching measurement in presence of Zn2+ ions; format: ADME; settings: isolated protein
Albumin [9] = target: T1, Albumin; assay: Binding affinity to human serum albumin at 289 kelvin by fluorescence quenching measurement; format: ADME; settings: isolated protein
Albumin [10] = target: T1, Albumin; assay: Binding affinity to human serum albumin at 289 kelvin by fluorescence quenching measurement in presence of Pb2+ ions; format: ADME; settings: isolated protein
Albumin [11] = target: T1, Albumin; assay: Binding affinity to human serum albumin at 289 kelvin by fluorescence quenching measurement in presence of Bi3+ ions; format: ADME; settings: isolated protein
Albumin [12] = target: T1, Albumin; assay: Binding affinity to human serum albumin at 289 kelvin by fluorescence quenching measurement in presence of Mg2+ ions; format: ADME; settings: isolated protein
Albumin [13] = target: T1, Albumin; assay: Binding affinity to human serum albumin at 289 kelvin by fluorescence quenching measurement in presence of Al3+ ions; format: ADME; settings: isolated protein
Albumin [14] = target: T1, Albumin; assay: Binding affinity to human serum albumin at 289 kelvin by fluorescence quenching measurement in presence of Hg2+ ions; format: ADME; settings: isolated protein
Albumin [15] = target: T1, Albumin; assay: Binding affinity to human serum albumin at 289 kelvin by fluorescence quenching measurement in presence of Fe3+ ions; format: ADME; settings: isolated protein
Albumin [16] = target: T1, Albumin; assay: Binding affinity to human serum albumin at 289 kelvin by fluorescence quenching measurement in presence of [Sio3]2- ions; format: ADME; settings: isolated protein
Albumin [17] = target: T1, Albumin; assay: Binding affinity to human serum albumin at 289 kelvin by fluorescence quenching measurement in presence of [NO3]- ions; format: ADME; settings: isolated protein
Albumin [18] = target: T1, Albumin; assay: Binding affinity to human serum albumin at 289 kelvin by fluorescence quenching measurement in presence of Cd2+ ions; format: ADME; settings: isolated protein
Albumin [19] = target: T1, Albumin; assay: Binding affinity to human serum albumin at 289 kelvin by fluorescence quenching measurement in presence of Ca2+ ions; format: ADME; settings: isolated protein

T1 sequence (P02768 whole entry): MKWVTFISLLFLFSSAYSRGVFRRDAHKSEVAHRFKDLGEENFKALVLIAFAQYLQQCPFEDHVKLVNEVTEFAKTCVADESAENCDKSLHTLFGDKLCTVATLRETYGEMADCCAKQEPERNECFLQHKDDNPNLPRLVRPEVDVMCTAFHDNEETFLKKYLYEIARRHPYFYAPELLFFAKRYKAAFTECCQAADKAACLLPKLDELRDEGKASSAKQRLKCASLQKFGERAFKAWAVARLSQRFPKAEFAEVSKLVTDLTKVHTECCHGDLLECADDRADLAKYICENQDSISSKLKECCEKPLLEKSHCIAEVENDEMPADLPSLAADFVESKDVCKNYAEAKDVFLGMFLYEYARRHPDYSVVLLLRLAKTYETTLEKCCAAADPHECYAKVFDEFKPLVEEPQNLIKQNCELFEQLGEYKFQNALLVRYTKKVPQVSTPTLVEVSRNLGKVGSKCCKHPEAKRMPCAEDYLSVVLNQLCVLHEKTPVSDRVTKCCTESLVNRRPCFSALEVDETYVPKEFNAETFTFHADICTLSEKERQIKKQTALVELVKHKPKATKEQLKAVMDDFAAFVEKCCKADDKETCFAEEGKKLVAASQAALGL

CO[C@H]1[C@H](O)[C@@H](O)[C@H](n2c3c(Cl)cccc3c3c4c(c5c6cccc(Cl)c6[nH]c5c32)C(=O)NC4=O)O[C@@H]1CO [REBECCAMYCIN]
IC50 (K562): 4 µM

CN1C(=O)c2c(c3c4ccccc4n([C@@H]4O[C@H](CO)[C@@H](O)[C@H](O)[C@H]4O)c3c3[nH]c4ccccc4c23)C1=O
K (Albumin [1]): 8.78 ×10⁶ L/mol | K (Albumin [2]): 3.48 ×10⁶ L/mol | K (Albumin [3]): 195000 L/mol | K (Albumin [4]): 5.32 ×10⁶ L/mol | K (Albumin [5]): 8.9 ×10⁶ L/mol | K (Albumin [6]): 4.33 ×10⁶ L/mol | K (Albumin [7]): 145000 L/mol | K (Albumin [8]): 7.12 ×10⁶ L/mol | K (Albumin [9]): 231000 L/mol | K (Albumin [10]): 4.87 ×10⁶ L/mol | K (Albumin [11]): 7.01 ×10⁶ L/mol | K (Albumin [12]): 4.76 ×10⁶ L/mol | K (Albumin [13]): 3.93 ×10⁶ L/mol | K (Albumin [14]): 8.41 ×10⁶ L/mol | K (Albumin [15]): 3.48 ×10⁶ L/mol | K (Albumin [16]): 6.68 ×10⁶ L/mol | K (Albumin [17]): 3.4 ×10⁶ L/mol | K (Albumin [18]): 4.56 ×10⁶ L/mol | K (Albumin [19]): 7.17 ×10⁶ L/mol
